According to patent US10906878B2, “Kinase inhibitors for the treatment of disease” (Dana-Farber Cancer Institute, Inc., priority 2013, dated 2021):
Like-named read-outs stand apart in the source and are kept apart here.

What was measured:
[1] = target: EGFR L858R/T790M Ba/F3 cells (Homo sapiens (Human), UniProt P00533, L858R/T790M); assay: Ba/F3 cell growth inhibition (MTS assay), EGFR L858R/T790M; type: cell-based; settings: for IC50: Assay 1, L858R/T790M, read-out: EGFR Ba/F3 cells IC 50 (nM) Assay 1 L858R/T790M
Source text: (§1) The specific cDNAs encoding the oncogenic alterations (EGFR: Del 19, L858R, L718Q, L844V, Del/T790M, L858R/T790M, Del 19/L718Q, Del 19/L844V, Del 19/T790M/L718Q and L858R/T790M/L718Q; FGFR: TEL-FGFR1, TEL-FGFR2, TEL-FGFR1 V561M, TEL-FGFR2 V561M; ALK: EML4-ALK; ROS1: CD74-ROS1) were cloned into the pDNA-Dual (BD Biosciences) vector using standard molecular biology techniques. Mutations were introduced using site-directed mutagenesis (Agilent) with mutant specific primers according to the manufacturer's instructions. All constructs were confirmed by DNA sequencing. The constructs were introduced into Ba/F3 cells using retroviral infection. Polyclonal cell lines were established by puromycin selection and subsequently cultured in the absence of interleukin-3 (IL-3). Uninfected Ba/F3 cells or cell lines expressing green fluorescent protein (GFP) were used as controls.
(§2) Growth and inhibition of growth was assessed by MTS assay. This assay, a colorimetric method for determining the number of viable cells, is based on the bioreduction of 3-(4,5-dimethylthiazol-2-yl)-5-(3-carboxymethoxyphenyl)-2-(4-sulfophenyl)-2H-tetrazolium (MTS) by cells to a formazan product that is soluble in cell culture medium, can be detected spectrophotometrically and was performed according to the manufacturer's recommended conditions. Ba/F3 cells were exposed to treatment for 72 hours and the number of cells used per experiment determined empirically to assure linear growth kinetics over that time period. All experimental points were set up in six to twelve wells and all experiments were repeated at least three times. […] The curves were fitted using a non-linear regression model with a sigmoidal dose response.

EGFR L858R Ba/F3 cells = EGFR L858R Ba/F3 cells (Homo sapiens (Human), UniProt P00533, L858R); assay: Ba/F3 cell growth inhibition (MTS assay), EGFR L858R; type: cell-based; settings: for IC50: L858R, read-out: EGFR Ba/F3 cells IC 50 (nM) Assay 1 L858R
Source text: as §1, §2

KIF5B/Ret_V804M = assay: Ba/F3 cell growth inhibition (MTS assay), KIF5B/Ret_V804M; type: cell-based
Method: as §2

[2] = target: EGFR Del/T790M Ba/F3 cells (Homo sapiens, UniProt P00533, T790M, cells depend on it, form not given); assay: Ba/F3 cell growth inhibition (MTS assay), EGFR Del/T790M; type: cell-based; settings: for IC50: Del/T790M, read-out: EGFR Ba/F3 cells IC 50 (nM) Assay 1 Del/T790M
Source text: as §1, §2

[3] = target: EGFR Del/T790M/L718Q Ba/F3 cells (Homo sapiens, UniProt P00533, L718Q/T790M, cells depend on it, form not given); type: cell-based
Source text: as §1, §2

[4] = target: EGFR L858R/T790M/L718Q Ba/F3 cells (Homo sapiens (Human), UniProt P00533, L718Q/L858R/T790M); assay: Ba/F3 cell growth inhibition (MTS assay), EGFR L858R/T790M/L718Q; type: cell-based; settings: for EGFR activity (% Control, 100 nM drug) L858R/T790M/L718Q: Table F; for IC50: Assay 1, T/L/L718Q, read-out: EGFR Ba/F3 cells IC 50 (nM) Assay 1 T/L/L718Q
Source text: as §1, §2

EGFR Del Ba/F3 cells = EGFR Del Ba/F3 cells (Homo sapiens, UniProt P00533, cells depend on it, form not given); assay: Ba/F3 cell growth inhibition (MTS assay), EGFR Del; type: cell-based; settings: for IC50: Del, read-out: EGFR Ba/F3 cells IC 50 (nM) Assay 1 Del; for EGFR activity (% Control, 100 nM drug) Del: Table F
Source text: as §1, §2

[5] = target: EGFR L718Q/L858R Ba/F3 cells (Homo sapiens (Human), UniProt P00533, L718Q/L858R); assay: Ba/F3 cell growth inhibition (MTS assay), EGFR L858R/L718Q; type: cell-based; settings: for EGFR activity (% Control, 100 nM drug) L858R/L718Q: Table F; for IC50: Assay 1, L718Q/L858R, read-out: EGFR Ba/F3 cells IC 50 (nM) Assay 1 L718Q/L858R
[6] = target: EGFR Wild type vIII Ba/F3 cells (Homo sapiens (Human), UniProt P00533, DELINS30-297G); assay: Ba/F3 cell growth inhibition (MTS assay), EGFR Wild type vIII; type: cell-based; settings: Assay 1, read-out: EGFR Ba/F3 cells IC 50 (nM) Assay 1 Wild type vIII
[7] = Microsome Stability Mouse; type: in vitro ADME; settings: mouse microsomes

Structure (SMILES)	EGFR activity (% Control, 100 nM drug) L858R/T790M ([1]; Table F) [% Control]	EGFR activity (% Control, 100 nM drug) L858R (EGFR L858R Ba/F3 cells; Table F) [% Control]	EGFR activity (% Control, 1.0 μM drug) Assay 1 L858R (EGFR L858R Ba/F3 cells; 1.0 μM drug, Assay 1) [% Control]	EGFR activity (% Control, 1.0 μM drug) Assay 2 L858R (EGFR L858R Ba/F3 cells; 1.0 μM drug) [% Control]	EGFR activity (% Control, 1.0 μM drug) Assay 1 KIF5B/Ret_V804M (KIF5B/Ret_V804M) [% Control]	EGFR activity (% Control, 100 nM drug) L858R/T790M/L718Q [4] [% Control]	EGFR activity (% Control, 100 nM drug) L858R/L718Q [5] [% Control]	EGFR activity (% Control, 1.0 μM drug) Assay 1 Del/T790M/L718Q ([3]; 1.0 μM drug, Assay 1) [% Control]	IC50 [1] [nM]	IC50 (EGFR L858R Ba/F3 cells; Assay 1) [nM]	IC50 ([2]; Assay 1) [nM]	IC50 [4] [nM]	IC50 (EGFR Del Ba/F3 cells; Assay 1) [nM]	EGFR activity (% Control, 100 nM drug) DEL/T790M ([2]; 100 nM drug, Table F) [% Control]	EGFR activity (% Control, 100 nM drug) Del (EGFR Del Ba/F3 cells) [% Control]	also measured
C=CC(=O)Nc1cccc(Oc2nc(Nc3ccc(N4CCN(C)CC4)cc3OC)ncc2Cl)c1 [WZ4002, reference compound]	3	2	2	2	93	104	94									EGFR activity (% Control, 100 nM drug) L858R/T790M ([1]; Table G): 30 % Control; EGFR activity (% Control, 100 nM drug) L858R (EGFR L858R Ba/F3 cells; Table G): 0 % Control; EGFR activity (% Control, 100 nM drug) DEL/T790M [2]: 2 % Control; EGFR activity (% Control, 100 nM drug) Del/T790M [2]: 6 % Control; EGFR activity (% Control, 1.0 μM drug) Assay 1 Del/T790M [2]: 1 % Control; EGFR activity (% Control, 1.0 μM drug) Assay 2 Del/T790M [2]: 3 % Control; EGFR activity (% Control, 1.0 μM drug) Assay 1 Del/T790M/L718Q [3]: 91 % Control; EGFR activity (% Control, 1.0 μM drug) Assay 2 Del/T790M/L718Q [3]: 85 % Control; EGFR activity (% Control, 1.0 μM drug) Assay 1 Del (EGFR Del Ba/F3 cells): 3 % Control; EGFR activity (% Control, 1.0 μM drug) Assay 2 Del (EGFR Del Ba/F3 cells): 6 % Control
C=CC(=O)Nc1cccc(N(C(=O)Nc2ccccc2Cl)c2cc(Nc3ccc(N4CCN(C)CC4)cc3OC)ncn2)c1 [Compound 11A]			2	3	103			84								EGFR activity (% Control, 1.0 μM drug) Assay 1 Del/T790M ([2]; 1.0 μM drug, Assay 1): 1 % Control; EGFR activity (% Control, 1.0 μM drug) Assay 2 Del/T790M ([2]; 1.0 μM drug, Assay 2): 5 % Control; EGFR activity (% Control, 1.0 μM drug) Assay 2 Del/T790M/L718Q ([3]; 1.0 μM drug, Assay 2): 82 % Control; EGFR activity (% Control, 1.0 μM drug) Assay 1 Del (EGFR Del Ba/F3 cells; 1.0 μM drug, Assay 1): 3 % Control; EGFR activity (% Control, 1.0 μM drug) Assay 2 Del (EGFR Del Ba/F3 cells; 1.0 μM drug, Assay 2): 4 % Control
C=CC(=O)Nc1ccc(OC)c(Nc2cc(N(C(=O)Nc3c(C)cccc3C)c3ccc(N4CCN(CC)CC4)cc3)ncn2)c1 [Compound 9A]			2	2	93			90								EGFR activity (% Control, 1.0 μM drug) Assay 1 Del/T790M ([2]; 1.0 μM drug, Assay 1): 2 % Control; EGFR activity (% Control, 1.0 μM drug) Assay 2 Del/T790M ([2]; 1.0 μM drug, Assay 2): 39 % Control; EGFR activity (% Control, 1.0 μM drug) Assay 2 Del/T790M/L718Q ([3]; 1.0 μM drug, Assay 2): 86 % Control; EGFR activity (% Control, 1.0 μM drug) Assay 1 Del (EGFR Del Ba/F3 cells; 1.0 μM drug, Assay 1): 3 % Control; EGFR activity (% Control, 1.0 μM drug) Assay 2 Del (EGFR Del Ba/F3 cells; 1.0 μM drug, Assay 2): 4 % Control
C=CC(=O)Nc1cccc(N(C(=O)NCc2ccccc2)c2cc(Nc3ccc(N4CCN(C)CC4)cc3OC)nc(Cl)n2)c1 [Compound 78A]									41.8	2.66	68.2	2240	23.9			IC50 [6]: 19.9 nM
C=CC(=O)Nc1cccc(N(C(=O)NCc2cccs2)c2cc(Nc3ccc(N4CCOCC4)cc3OC)ncn2)c1 [Compound 55A]									2.4	0.5	15.9	657	2			IC50 [6]: 2.3 nM; Microsome Stability Mouse min [7]: 1.8 min
Cc1ccc(C(=O)Nc2ccc(CN3CCN(C)CC3)c(C(F)(F)F)c2)cc1C#Cc1cnc2cccnn12 [Ponatinib]								48								EGFR activity (% Control, 1.0 μM drug) Assay 1 L858R (EGFR L858R Ba/F3 cells): 98 % Control; KIF5B/Ret_V804M Ba/F3 cell growth (% control, 1.0 μM drug) (KIF5B/Ret_V804M; Assay 1): 2 % Control; EGFR activity (% Control, 1.0 μM drug) Assay 1 Del/T790M [2]: 79 % Control; EGFR activity (% Control, 1.0 μM drug) Assay 1 Del (EGFR Del Ba/F3 cells): 17 % Control
C=CC(=O)Nc1ccc(OC)c(Nc2cc(N(C)C(=O)Nc3ccccc3)ncn2)c1 [Compound 74A]									215	0.572	278	780	5.16			IC50 [5]: 243 nM
C=CC(=O)Nc1cccc(N(C(=O)NCc2ccccc2)c2cc(NC)ncn2)c1 [Compound 15A]	48	3				86	81		376	17.7	842	3260	91.9	107	47	IC50 [5]: 2150 nM
C=CC(=O)Nc1cccc(N(C(=O)Nc2ccc(F)c(Cl)c2)c2cc(Nc3ccc(N4CCN(C)CC4)cc3OC)ncn2)c1 [Compound 22A]	4	3				106	84							84	3	
C=CC(=O)Nc1ccc(OC)c(N(C(=O)Nc2c(C)cccc2C)c2cc(Nc3ccc(N4CCN(CC)CC4)cc3)ncn2)c1 [Compound 8A]			2	10	108			113								EGFR activity (% Control, 1.0 μM drug) Assay 1 Del/T790M ([2]; 1.0 μM drug, Assay 1): 1 % Control; EGFR activity (% Control, 1.0 μM drug) Assay 2 Del/T790M ([2]; 1.0 μM drug, Assay 2): 100 % Control; EGFR activity (% Control, 1.0 μM drug) Assay 2 Del/T790M/L718Q ([3]; 1.0 μM drug, Assay 2): 93 % Control; EGFR activity (% Control, 1.0 μM drug) Assay 1 Del (EGFR Del Ba/F3 cells; 1.0 μM drug, Assay 1): 3 % Control; EGFR activity (% Control, 1.0 μM drug) Assay 2 Del (EGFR Del Ba/F3 cells; 1.0 μM drug, Assay 2): 72 % Control
C=CC(=O)Nc1cccc(N(C(=O)N[C@@H](C)c2ccccc2)c2cc(Nc3ccc(N4CCN(C)CC4)cc3OC)ncn2)c1 [Compound 34A]									20	0.51	60.4	312	19.7			IC50 [6]: 10.1 nM; Microsome Stability Mouse min [7]: 9.4 min
C=CC(=O)Nc1cccc(N(C(=O)Nc2ccccc2)c2cc(NC)ncn2)c1 [Compound 14A]	75	1				87	76							98	24	
COc1ccc(NC(=O)/C=C/CN(C)C)cc1Nc1cc(N(C)C(=O)Nc2ccccc2)ncn1 [Compound 20A]	26	2				93	48		99.1	0.994	211	917	2.58	126	2	IC50 [5]: 256 nM
